Experimental findings from ChEMBL document CHEMBL1137550, “New potent acetylcholinesterase inhibitors in the tetracyclic triterpene series” (J Med Chem, 2007) are described below.

Assay [1] concerns the target T1, Acetylcholinesterase (Bos taurus, UniProt P23795).
T1 sequence (P23795 whole entry): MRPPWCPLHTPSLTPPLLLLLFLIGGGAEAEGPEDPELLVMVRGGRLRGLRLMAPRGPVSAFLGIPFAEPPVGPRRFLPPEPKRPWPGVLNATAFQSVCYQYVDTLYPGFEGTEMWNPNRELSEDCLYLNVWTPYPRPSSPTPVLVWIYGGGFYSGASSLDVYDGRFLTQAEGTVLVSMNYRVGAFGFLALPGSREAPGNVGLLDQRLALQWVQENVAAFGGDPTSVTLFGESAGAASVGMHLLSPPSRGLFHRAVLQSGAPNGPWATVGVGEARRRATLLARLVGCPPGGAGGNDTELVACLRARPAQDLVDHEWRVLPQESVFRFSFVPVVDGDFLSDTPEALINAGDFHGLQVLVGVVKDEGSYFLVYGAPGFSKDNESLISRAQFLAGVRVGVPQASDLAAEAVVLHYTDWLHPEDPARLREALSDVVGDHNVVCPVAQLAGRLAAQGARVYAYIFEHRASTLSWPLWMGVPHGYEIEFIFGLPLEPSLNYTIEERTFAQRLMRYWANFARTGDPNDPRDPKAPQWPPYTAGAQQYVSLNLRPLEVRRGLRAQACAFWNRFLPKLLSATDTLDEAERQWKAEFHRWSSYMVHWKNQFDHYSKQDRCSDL
Kind of assay: Inhibition of bovine erythrocytes AChE by Ellman's method.

In assay [2] the target is Acetylcholinesterase (Torpedo californica, UniProt P04058).
Description: Inhibition of Torpedo californica AChE by Ellman's method
For assay [3], the target named is Acetylcholinesterase (Homo sapiens, UniProt P22303).
Description: Inhibition of human recombinant AChE by Ellman's method
The next assay has as its target Cholinesterase (Homo sapiens, UniProt P06276).
Assay [4] addresses Acetylcholinesterase (Electrophorus electricus, UniProt O42275).
Description: Inhibition of Electrophorus electricus AChE by Ellman's method

Sequence of Acetylcholinesterase (Homo sapiens, UniProt P22303) (P22303 whole entry): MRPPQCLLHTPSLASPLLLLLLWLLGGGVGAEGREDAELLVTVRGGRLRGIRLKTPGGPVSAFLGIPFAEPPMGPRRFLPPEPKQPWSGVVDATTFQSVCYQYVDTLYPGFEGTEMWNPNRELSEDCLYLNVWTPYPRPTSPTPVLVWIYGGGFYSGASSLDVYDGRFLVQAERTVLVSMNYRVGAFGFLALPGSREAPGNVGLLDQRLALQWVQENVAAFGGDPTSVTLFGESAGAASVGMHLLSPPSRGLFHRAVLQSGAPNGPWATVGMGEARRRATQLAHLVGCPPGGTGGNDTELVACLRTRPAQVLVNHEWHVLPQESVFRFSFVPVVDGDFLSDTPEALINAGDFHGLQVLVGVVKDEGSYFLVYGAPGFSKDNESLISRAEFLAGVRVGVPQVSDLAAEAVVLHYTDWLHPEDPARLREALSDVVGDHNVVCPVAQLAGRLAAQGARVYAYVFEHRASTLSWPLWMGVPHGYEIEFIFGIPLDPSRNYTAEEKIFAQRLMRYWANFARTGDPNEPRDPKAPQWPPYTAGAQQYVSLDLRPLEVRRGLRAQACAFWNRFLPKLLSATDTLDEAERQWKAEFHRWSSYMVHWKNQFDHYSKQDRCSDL
Sequence of Acetylcholinesterase (Torpedo californica, UniProt P04058) (P04058 whole entry): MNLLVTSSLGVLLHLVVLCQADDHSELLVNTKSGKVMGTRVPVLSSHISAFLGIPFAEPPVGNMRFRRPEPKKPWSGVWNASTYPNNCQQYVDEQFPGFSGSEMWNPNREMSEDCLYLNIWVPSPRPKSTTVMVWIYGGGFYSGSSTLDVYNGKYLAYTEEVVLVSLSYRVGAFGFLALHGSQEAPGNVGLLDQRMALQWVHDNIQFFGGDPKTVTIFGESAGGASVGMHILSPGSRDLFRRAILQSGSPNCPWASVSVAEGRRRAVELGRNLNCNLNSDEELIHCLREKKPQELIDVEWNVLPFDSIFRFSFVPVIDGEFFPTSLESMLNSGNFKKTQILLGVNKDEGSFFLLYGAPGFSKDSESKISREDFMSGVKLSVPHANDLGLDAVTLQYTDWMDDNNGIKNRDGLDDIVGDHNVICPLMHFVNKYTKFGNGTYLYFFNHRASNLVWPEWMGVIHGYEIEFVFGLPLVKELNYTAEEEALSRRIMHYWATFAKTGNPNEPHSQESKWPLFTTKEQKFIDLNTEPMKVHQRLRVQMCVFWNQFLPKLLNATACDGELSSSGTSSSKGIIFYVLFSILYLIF
Sequence of Acetylcholinesterase (Electrophorus electricus, UniProt O42275) (O42275 whole entry): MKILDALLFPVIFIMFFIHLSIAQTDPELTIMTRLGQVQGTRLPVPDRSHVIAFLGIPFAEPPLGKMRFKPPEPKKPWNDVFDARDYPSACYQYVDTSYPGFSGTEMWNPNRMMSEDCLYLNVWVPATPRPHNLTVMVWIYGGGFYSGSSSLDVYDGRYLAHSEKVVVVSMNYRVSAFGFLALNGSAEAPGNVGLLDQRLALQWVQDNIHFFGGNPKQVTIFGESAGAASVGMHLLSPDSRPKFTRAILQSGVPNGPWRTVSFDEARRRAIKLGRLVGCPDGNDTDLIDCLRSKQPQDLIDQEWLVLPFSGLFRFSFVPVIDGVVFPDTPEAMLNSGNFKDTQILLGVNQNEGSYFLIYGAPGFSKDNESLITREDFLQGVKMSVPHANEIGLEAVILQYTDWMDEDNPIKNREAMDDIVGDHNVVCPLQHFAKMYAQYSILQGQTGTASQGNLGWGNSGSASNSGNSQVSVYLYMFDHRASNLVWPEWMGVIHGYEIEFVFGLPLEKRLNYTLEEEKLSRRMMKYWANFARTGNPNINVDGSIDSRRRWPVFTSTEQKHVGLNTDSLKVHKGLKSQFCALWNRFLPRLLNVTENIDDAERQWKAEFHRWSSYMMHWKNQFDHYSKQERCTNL
Sequence of Cholinesterase (P06276 whole entry): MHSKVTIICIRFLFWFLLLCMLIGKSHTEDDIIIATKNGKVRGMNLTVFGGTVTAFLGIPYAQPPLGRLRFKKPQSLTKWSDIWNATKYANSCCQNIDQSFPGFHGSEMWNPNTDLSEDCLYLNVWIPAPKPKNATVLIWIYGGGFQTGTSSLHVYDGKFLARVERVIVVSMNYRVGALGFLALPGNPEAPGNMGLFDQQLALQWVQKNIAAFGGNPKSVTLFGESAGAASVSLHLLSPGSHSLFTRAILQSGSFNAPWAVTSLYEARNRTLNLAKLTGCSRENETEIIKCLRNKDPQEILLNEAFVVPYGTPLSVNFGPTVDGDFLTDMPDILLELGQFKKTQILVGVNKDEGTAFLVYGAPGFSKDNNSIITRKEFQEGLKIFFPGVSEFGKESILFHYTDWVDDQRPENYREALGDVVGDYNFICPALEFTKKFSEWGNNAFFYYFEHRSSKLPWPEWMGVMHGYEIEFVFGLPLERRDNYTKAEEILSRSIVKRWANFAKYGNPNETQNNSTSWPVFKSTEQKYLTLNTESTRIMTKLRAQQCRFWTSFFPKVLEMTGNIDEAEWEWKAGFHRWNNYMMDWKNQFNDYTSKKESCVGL

For `CC[C@H](C)C1=N[C@H]2CC=C3C[C@H]4C(=O)C[C@]5(C)[C@@H]([C@H](C)N(C)C)[C@H](O)C[C@@]5(C)[C@@H]4CC[C@H]3[C@]2(C)CN1`, the IC50 (commonly the midpoint of a concentration-inhibition curve) against Acetylcholinesterase [1] was 7.35 µM; against Acetylcholinesterase [2], 0.447 µM; at Acetylcholinesterase [3], 3.83 µM; against Cholinesterase, above 10 µM.

As for `CC[C@H](C)C(=O)N[C@H]1CC=C2C[C@H]3C(=O)C[C@]4(C)[C@@H]([C@H](C)N(C)C)[C@H](O)C[C@@]4(C)[C@@H]3CC[C@H]2[C@]1(C)/C=N/Cc1ccccc1`, the IC50 against Cholinesterase is above 10 µM.

On Acetylcholinesterase [4], `CC[C@H](C)C(=O)N[C@H]1CC[C@H]2C[C@H]3C(=O)C[C@]4(C)[C@@H]([C@H](C)N(C)C)[C@H](O)C[C@@]4(C)[C@@H]3CC[C@H]2[C@]1(C)CN` returned a half-inhibitory concentration (IC50) of 1.34 µM. This lies in the single-digit micromolar range.

In the case of `CC[C@H](C)C(=O)N[C@H]1CC=C2C[C@H]3C(=O)C[C@]4(C)[C@@H]([C@H](C)N(C)C)[C@H](O)C[C@@]4(C)[C@@H]3CC[C@H]2[C@]1(C)CO`, the IC50 against Acetylcholinesterase [4] is 0.105 µM; against Cholinesterase, above 10 µM.

`CN[C@@H](C)[C@H]1[C@H](O)C[C@@]2(C)[C@@H]3CC[C@@H]4C(=CC[C@@H]5N=C(C(C)C)OC[C@]54C)C[C@H]3C(=O)C[C@]12C`: the IC50 against Acetylcholinesterase [4] amounted to 0.106 µM; on Acetylcholinesterase [1] it was 2.23 µM; at Acetylcholinesterase [2] it was 0.485 µM; at Acetylcholinesterase [3], 0.517 µM.

Take `CN[C@@H](C)[C@H]1[C@H](O)C[C@@]2(C)[C@@H]3CC[C@@H]4[C@@H](CC[C@H](NC(=O)C(C)C)[C@@]4(C)CO)C[C@H]3C(=O)C[C@]12C`: the IC50 turned out to be 0.11 µM on Acetylcholinesterase [4] and 1.44 µM against Cholinesterase.

As for `CC(C)C1=N[C@H]2CC[C@]34C[C@]35C(=O)C[C@]3(C)[C@@H]([C@H](C)N(C)C)[C@H](O)C[C@@]3(C)[C@@H]5CC[C@H]4[C@]2(C)CN1`, the IC50 at Acetylcholinesterase [4] is 0.018 µM; on Acetylcholinesterase [1] it was 3.28 µM; against Acetylcholinesterase [2], 0.002 µM; against Acetylcholinesterase [3], 3.11 µM; against Cholinesterase, above 10 µM.

As to `CC[C@H](C)C1=N[C@H]2CC[C@]34C[C@]35C(=O)C[C@]3(C)[C@@H]([C@H](C)N(C)C)[C@H](O)C[C@@]3(C)[C@@H]5CC[C@H]4[C@]2(C)CN1`, the IC50 against Acetylcholinesterase [4] amounted to 0.014 µM; on Acetylcholinesterase [1], 6.49 µM; at Acetylcholinesterase [2] it was 0.002 µM; on Acetylcholinesterase [3], 4.37 µM.

In the case of `CC[C@H](C)C(=O)N[C@H]1CC=C2C[C@H]3C(=O)C[C@]4(C)[C@@H]([C@H](C)N(C)C)[C@H](O)C[C@@]4(C)[C@@H]3CC[C@H]2[C@]1(C)CN`, on Cholinesterase, the IC50 was above 10 µM.

As to `CC(C)[C@H]1N[C@H]2CC=C3C[C@H]4C(=O)C[C@]5(C)[C@@H]([C@H](C)N(C)C)[C@H](O)C[C@@]5(C)[C@@H]4CC[C@H]3[C@]2(C)CO1`, the half-maximal inhibitory concentration (IC50) was 2.38 µM at Acetylcholinesterase [4] and above 10 µM on Cholinesterase.

`CCC(CC)C1=N[C@H]2CC=C3C[C@H]4C(=O)C[C@]5(C)[C@@H]([C@H](C)N(C)C)[C@H](O)C[C@@]5(C)[C@@H]4CC[C@H]3[C@]2(C)CO1`: the IC50 on Cholinesterase was 1.54 µM.

In the case of `C[C@@H]([C@H]1[C@H](O)C[C@@]2(C)[C@@H]3CC[C@@H]4C(=CC[C@@H]5N=C(C(C)(C)C)OC[C@]54C)C[C@H]3C(=O)C[C@]12C)N(C)C`, the IC50 against Acetylcholinesterase [1] is 1.18 µM; at Acetylcholinesterase [2] it was 0.372 µM; against Acetylcholinesterase [3], 0.351 µM; against Cholinesterase, above 10 µM.

At Acetylcholinesterase [4], `CC(C)C(=O)N[C@H]1CC[C@H]2C[C@H]3C(=O)C[C@]4(C)[C@@H]([C@H](C)N(C)C)[C@H](O)C[C@@]4(C)[C@@H]3CC[C@H]2[C@]1(C)CN` returned a half-maximal inhibitory concentration (IC50) of 0.291 µM.

On to `CC(C)C(=O)N[C@H]1CCC23CC24C(=O)C[C@]2(C)[C@@H]([C@H](C)N(C)C)[C@H](O)C[C@@]2(C)[C@@H]4CC[C@H]3[C@]1(C)CO` (some centres not stated), for which the half-inhibitory concentration (IC50) on Acetylcholinesterase [4] and at Cholinesterase was above 10 µM each time.

For `CC(C)[C@H]1N[C@H]2CC[C@]34C[C@]35C(=O)C[C@]3(C)[C@@H]([C@H](C)N(C)C)C(O)C[C@@]3(C)[C@@H]5CC[C@H]4[C@]2(C)CO1` (some centres not stated), the 50% inhibitory concentration (IC50) on Acetylcholinesterase [4] is 0.82 µM; at Cholinesterase, above 10 µM.

Consider `CC1=N[C@H]2CC=C3C[C@H]4C(=O)C[C@]5(C)[C@@H]([C@H](C)N(C)C)[C@H](O)C[C@@]5(C)[C@@H]4CC[C@H]3[C@]2(C)CO1`, for which the IC50 on Acetylcholinesterase [1] was 6.12 µM; on Acetylcholinesterase [2], 2.79 µM; against Acetylcholinesterase [3], 5.24 µM; against Cholinesterase, above 10 µM.

As to `CC(C)C1=N[C@H]2CC[C@H]3C=C4C(=O)C[C@]5(C)[C@@H]([C@H](C)N(C)C)[C@H](O)C[C@@]5(C)[C@@H]4CC[C@H]3[C@]2(C)CO1`, the values for the IC50 against Acetylcholinesterase [4] and at Cholinesterase were 0.11 µM and 1.45 µM, respectively.

In turn, `CCC(CC)C(=O)N[C@H]1CC=C2C[C@H]3C(=O)C[C@]4(C)[C@@H]([C@H](C)N(C)C)[C@H](O)C[C@@]4(C)[C@@H]3CC[C@H]2[C@]1(C)CO` returned an IC50 against Cholinesterase above 10 µM.

On to `CC[C@H](C)C1=N[C@H]2CC=C3C[C@H]4C(=O)C[C@]5(C)[C@@H]([C@H](C)N(C)C)[C@H](O)C[C@@]5(C)[C@@H]4CC[C@H]3[C@]2(C)CO1`, for which the 50% inhibitory concentration (IC50) at Acetylcholinesterase [1] was 1.36 µM; against Acetylcholinesterase [2] it was 0.237 µM; at Acetylcholinesterase [3], 0.265 µM; on Cholinesterase, above 10 µM.

Turning to `CC(C)C1=N[C@H]2CC=C3CC4C(=O)C[C@]5(C)[C@@H]([C@H](C)N(C)C)[C@H](O)C[C@@]5(C)[C@@H]4CC[C@H]3[C@]2(C)CO1` (some centres not stated), the IC50 was 0.031 µM on Acetylcholinesterase [4]; 0.756 µM at Acetylcholinesterase [1]; 0.385 µM at Acetylcholinesterase [2]; 0.299 µM against Acetylcholinesterase [3]; above 1 µM on Cholinesterase.

Molecule `C[C@@H]([C@H]1[C@H](O)C[C@@]2(C)[C@@H]3CC[C@@H]4C(=CC[C@@H]5N=C(c6ccccc6)OC[C@]54C)C[C@H]3C(=O)C[C@]12C)N(C)C` registered an IC50 at Cholinesterase above 10 µM.

For `C[C@@H]([C@H]1[C@H](O)C[C@@]2(C)[C@@H]3CC[C@@H]4C(=CC[C@@H]5N=C(Cc6ccccc6)OC[C@]54C)C[C@H]3C(=O)C[C@]12C)N(C)C`, at Cholinesterase, it took 0.38 µM to reach half-maximal inhibition (IC50).

`CC(C)C1=N[C@H]2CC=C3C[C@H]4C(=O)C[C@]5(C)[C@@H]([C@H](C)N(C)C)[C@H](OC(=O)C(C)(C)C)C[C@@]5(C)[C@@H]4CC[C@H]3[C@]2(C)CO1`: the half-inhibitory concentration (IC50) at Acetylcholinesterase [4] amounted to 0.11 µM; at Acetylcholinesterase [1] it was 1.39 µM; against Acetylcholinesterase [2], 0.724 µM; at Acetylcholinesterase [3], 0.839 µM.

Consider `CC(=O)O[C@@H]1C[C@@]2(C)[C@@H]3CC[C@@H]4C(=CC[C@@H]5N=C(C(C)C)OC[C@]54C)C[C@H]3C(=O)C[C@]2(C)[C@H]1[C@H](C)N(C)C`, for which the midpoint of inhibition at Acetylcholinesterase [4], the IC50, lay at 0.38 µM.

For `CCC(C)C1=N[C@H]2CC=C3C[C@H]4C(=O)C[C@]5(C)[C@@H]([C@H](C)N(C)C)[C@H](O)C[C@@]5(C)[C@@H]4CC[C@H]3[C@]2(C)CO1` (some centres not stated), the concentration for half-maximal inhibition (IC50) on Cholinesterase is above 10 µM.

For the molecule `CCC1=N[C@H]2CC=C3C[C@H]4C(=O)C[C@]5(C)[C@@H]([C@H](C)N(C)C)[C@H](O)C[C@@]5(C)[C@@H]4CC[C@H]3[C@]2(C)CO1`, the concentration for half-maximal inhibition (IC50) against Cholinesterase is above 10 µM.

With `CC(C)C(=O)N[C@H]1CC=C2C[C@H]3C(=O)C[C@]4(C)[C@@H]([C@H](C)N(C)C)[C@H](O)C[C@@]4(C)[C@@H]3CC[C@H]2[C@]1(C)CO` (racemic), the IC50 against Cholinesterase came to 1.93 µM. This lies in the single-digit micromolar range.
